The results in this text go back to US8580746B2, “Amide linkage cyclic natriuretic peptide constructs” (Palatin Technologies, Inc., priority 2006, dated 2013).

The structures appear in SMILES notation. Bridge positions count the residues as written; N and C are the ends. Square brackets hold non-standard residues; d marks the D form. Peptide text beside a SMILES is read from it. * marks the point of attachment. X1 = N=C(N)NCCC[C@H]1C(=O)N[C@@H](C(N)=O)CN1*; dNle = CCCC[C@@H](N)C(=O)O; Dab = NCC[C@H](N)C(=O)O

For data set [1], the target named is T1, human natriuratic peptide receptor A (NPRA) (Homo sapiens, UniProt P16066).
T1 sequence (P16066 33-1061): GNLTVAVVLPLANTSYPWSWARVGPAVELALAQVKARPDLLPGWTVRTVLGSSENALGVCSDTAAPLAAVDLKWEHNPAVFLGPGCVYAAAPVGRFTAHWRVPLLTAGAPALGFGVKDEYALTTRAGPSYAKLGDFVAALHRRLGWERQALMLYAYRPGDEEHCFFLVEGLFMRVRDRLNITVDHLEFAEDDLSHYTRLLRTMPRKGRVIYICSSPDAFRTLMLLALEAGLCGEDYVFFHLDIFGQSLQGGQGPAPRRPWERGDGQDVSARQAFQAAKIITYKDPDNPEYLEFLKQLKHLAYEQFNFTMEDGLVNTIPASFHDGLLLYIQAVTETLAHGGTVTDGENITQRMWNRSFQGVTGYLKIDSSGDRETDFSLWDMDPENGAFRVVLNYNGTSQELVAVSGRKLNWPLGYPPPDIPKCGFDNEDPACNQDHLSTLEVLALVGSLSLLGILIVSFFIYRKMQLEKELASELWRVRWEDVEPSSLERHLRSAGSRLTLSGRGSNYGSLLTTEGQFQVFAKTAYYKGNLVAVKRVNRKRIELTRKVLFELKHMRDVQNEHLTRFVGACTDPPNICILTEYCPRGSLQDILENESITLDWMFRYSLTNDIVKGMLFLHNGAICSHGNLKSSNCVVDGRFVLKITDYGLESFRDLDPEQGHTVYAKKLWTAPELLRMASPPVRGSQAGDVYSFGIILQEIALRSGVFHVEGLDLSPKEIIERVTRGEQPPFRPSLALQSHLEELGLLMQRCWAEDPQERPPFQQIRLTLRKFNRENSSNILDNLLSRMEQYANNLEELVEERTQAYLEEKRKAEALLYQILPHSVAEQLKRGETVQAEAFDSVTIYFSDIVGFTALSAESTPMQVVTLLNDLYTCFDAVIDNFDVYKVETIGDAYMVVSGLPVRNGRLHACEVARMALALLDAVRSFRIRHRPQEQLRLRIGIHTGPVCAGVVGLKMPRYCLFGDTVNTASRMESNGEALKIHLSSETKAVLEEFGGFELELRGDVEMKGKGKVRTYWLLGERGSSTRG
Description: Competitive inhibition binding assay, [125I]-ANP, membrane homogenates from HEK-hNPRA cells. The settings on record: [125I]-ANP competition, HEK-hNPRA membranes. The text has this: (§1) A cDNA clone that encodes for human natriuratic peptide receptor A (NPRA) was purchased from Bio S&T Inc. (Montreal, Quebec). The cDNA clone was inserted into the mammalian expression vector pcDNA3.1 (Invitrogen) and transfected into HEK-293 cells. Stable clones were selected by culture of cells in the presence of G418 sulfate. Expression of NPRA was examined by binding of [^125I]-atrial natriuretic peptide ([^125I]-ANP) to membrane homogenates prepared from clonal cell lines. HEK-hNPRA cells were maintained in culture at 37° C. in 5% CO2 in Dulbecco's Modified Eagle's Medium (DMEM) supplemented with 10% FBS, G418 sulfate (300 μg/mL) sodium glutamate (0.29 mg/mL), penicillin (100 units/mL) and streptomycin (100 ug/mL).
A competitive inhibition binding assay was performed using crude membrane homogenates prepared from HEK-hNPRA cells. To prepare membrane homogenates, cells were rinsed with phosphate-buffered saline and incubated for 15 minutes at 4° C. in hypotonic lysis buffer (10 mM Tris, pH 7.4+5 mM EDTA). Cells were transferred from plates to polypropylene tubes and homogenized. Homogenates were centrifuged at 25,000×g for 20 minutes. Pellets were resuspended in buffer consisting of 50 mM Tris (pH 7.4) and 1 mM EDTA, homogenized and centrifuged at 25,000×g for 20 minutes. Pellets were resuspended in buffer consisting of 100 mM Tris (pH 7.4) and 10 mM MgCl2 and stored at −80° C. until needed. On the day of an assay, homogenates were thawed and homogenized. Binding of [^125I]-ANP was carried out in buffer containing 25 mM Hepes (pH 7.4), 100 mM NaCl, 2 mM CaCl2, 5 mM MgCl2, 0.1% BSA and 1 mM 1,10-phenanthroline. Homogenates (1-10 μg protein/well) were incubated with [^125I]-ANP (25-30 pM) and increasing concentrations of competing ligands in Millipore filter plates for 120 minutes at 4° C. Assays were stopped by addition of cold wash buffer (phosphate-buffered saline) followed by filtration using a vacuum manifold. Bound radioactivity was determined using a gamma counter. Non-specific binding was defined by binding of [I^125]-hANP to non-transfected HEK293 membranes. Data were analyzed using GraphPad Prism® curve-fitting software.

For data set [2] the following is noted: in vivo. As to the method:
In other tests, resistance to degradation by a 50 μM concentration of human neutral endopeptidase was determined for selected constructs.

In the next data set the target is T2, hNPR-A (Homo sapiens, UniProt P16066).
T2 sequence (P16066 33-1061): T1 sequence (P16066 33-1061)
Description: Accumulation of intracellular cGMP in HEK-293 cells that express recombinant hNPR-A. The class given is cell-based. The following applies: HEK-hNPRA cells.
From the text: as §1
Functional evaluation of constructs was performed by measuring the accumulation of intracellular cGMP in HEK-293 cells that express recombinant hNPR-A. HEK-NPRA cells were harvested by washing and centrifugation in Cell Dissociation Buffer (Gibco, Life Technologies). Pelleted cells were resuspended in Hank's Balanced Salt Solution (HBSS) containing 10 mM Hepes (pH 7.4), 5 mM MgCl2, […], 1 mM 1,10-phenanthroline and BSA (0.5 mg/mL). Following centrifugation, cells were resuspended in the above buffer supplemented with 0.5 mM 3-isobutyl-1-methylxanthine (IBMX). Cells (˜2×10^5/well) were added to each well of a 96-well plate and incubated for 15 minutes at 37° C. Following the pre-incubation period, cells were incubated for an additional 15 minutes in the presence of increasing concentrations of constructs. The reaction was terminated by lysis of the cells with temperature shock. The reaction plate was incubated in a dry ice/ethanol bath for 15 minutes followed by incubation at 90° C. for 10 minutes. Accumulation of cGMP was measured using the cGMP Flashplate RIA (Perkin-Elmer). Data analysis and EC50 values were determined by using nonlinear regression analysis with GraphPad Prism® software.

`CCCC[C@H]1NC(=O)[C@H](CCCNC(=N)N)NC(=O)CNC(=O)CNC(=O)[C@H](Cc2ccccc2)NC(=O)[C@H](Cc2c[nH]cn2)NC(=O)[C@@H](NC(=O)[C@@H](C)N)CC(=O)NCC[C@@H](C(=O)N[C@@H](Cc2ccc(O)cc2)C(=O)N2C[C@H](C(N)=O)NC(=O)[C@@H]2CCCNC(=N)N)NC(=O)[C@H](CO)NC(=O)[C@H]([C@@H](C)CC)NC(=O)[C@H](CCCNC(=N)N)NC(=O)[C@H](CC(=O)O)NC1=O` [4-98] (H-[dA]DHFGGR[dNle]DRIS[Dab]Y-X1; lactam 2-13): the Ki in data set [1] was 600 pM. In data set [2], this compound showed a half-life of 6.6 min. For the same compound, on hNPR-A, the EC50 came to 250 pM.

Usually Ki stands for the equilibrium dissociation constant of an inhibitor or competing ligand from its target. Read a low Ki as a stronger hold on the target. In general, half-life refers to the time needed for the level to fall by half in the phase considered. A lower half-life goes with fast loss. One may read the EC50 as the midpoint of the concentration-response curve.
